Several values for one entry are separate records, joined by “and”; a condition that tells them apart may be missing. Equal entries are not always repeated.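 48-hour exposure; five concentrations; linearly interpolated endpoints. The concentration for 50% growth inhibition is given as GI50. TGI: concentration producing complete growth inhibition.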
Key:
Experiment in all cases: DTP human tumour cell line panel, 48 h
[1] = system: NCI-H522 lung
[2] = system: SN12C renal
[3] = system: SK-MEL-5 melanoma
[4] = system: CAKI-1 renal
[5] = system: MOLT-4 leukemia
[6] = system: SR leukemia
[7] = system: EKVX NSCLC
[8] = system: HOP-62 NSCLC
[9] = system: SNB-19 CNS
[10] = system: BT-549 breast

In the case of `CN(N=O)C(=O)N[C@@H](C=O)[C@@H](O)[C@H](O)[C@H](O)CO`, the GI50 [1] is reported as greater than 750 µM, the TGI [1] is reported as 646 µM and > 750 µM and the GI50 [2] is reported as greater than 750 µM. The TGI [2] was 603 µM and > 750 µM, the GI50 [3] was greater than 750 µM and the TGI [3] was 631 µM and > 750 µM. For the same molecule, the GI50 [4] was greater than 750 µM, the TGI [4] was 457 µM and > 750 µM and the GI50 [5] was greater than 750 µM. The TGI [5] was 574 µM and > 750 µM, the TGI [6] was greater than 750 µM and the GI50 [7] was greater than 750 µM. It also gave a TGI [7] greater than 750 µM, a GI50 [8] greater than 750 µM and a TGI [8] greater than 750 µM. The GI50 [9] was greater than 750 µM, the TGI [9] was greater than 750 µM and the TGI [10] was greater than 750 µM.

Molecule `O=C(Nc1cccc(Oc2nnc(Cl)c3ccccc23)c1)Nc1ccc(Cl)c(C(F)(F)F)c1` has a GI50 [1] of 0.499 µM, a TGI [1] of 3.46 µM and a GI50 [2] of 0.941 µM. For the same molecule, the TGI [2] was 3.85 µM, the GI50 [3] was 0.985 µM and the TGI [3] was 3.25 µM. It also gave a GI50 [4] of 0.832 µM, a TGI [4] of 6.5 µM and a GI50 [5] of 0.494 µM. For the same molecule, the TGI [5] was 4.18 µM, the GI50 [6] was 0.321 µM and the TGI [6] was 1.42 µM. For the same molecule, the GI50 [7] was 0.646 µM, the TGI [7] was 6.49 µM and the GI50 [8] was 1.98 µM. It also gave a TGI [8] of 5.75 µM, a GI50 [9] of 1.26 µM and a TGI [9] of 4.9 µM. It also gave a GI50 [10] of 0.674 µM and a TGI [10] of 3.07 µM.

With `O=C1C2=Nc3ccccc3C(O)N2c2ccccc21` (configuration not stated) the TGI [1] was 32.6 µM, the TGI [2] was greater than 100 µM and the TGI [3] was 3.76 µM. For the same molecule, the TGI [4] was greater than 100 µM, the TGI [5] was greater than 100 µM and the TGI [6] was greater than 100 µM. For the same molecule, the TGI [7] was greater than 100 µM, the TGI [8] was greater than 100 µM and the TGI [9] was greater than 100 µM. It also gave a TGI [10] greater than 100 µM.

For `CC(=O)c1cc2c(cc1Nc1c3ccccc3nc3occ(Cl)c13)OCO2`, the GI50 [1] was 0.0402 µM, the TGI [1] was 1.46 µM and the GI50 [2] was 0.603 µM. For the same molecule, the TGI [2] was greater than 100 µM, the GI50 [3] was 0.103 µM and the TGI [3] was 0.376 µM. For the same molecule, the GI50 [4] was 0.085 µM, the TGI [4] was greater than 100 µM and the GI50 [5] was 0.198 µM. For the same molecule, the TGI [5] was greater than 100 µM, the GI50 [6] was 0.12 µM and the TGI [6] was 1.06 µM. For the same molecule, the GI50 [7] was 0.181 µM, the TGI [7] was greater than 100 µM and the GI50 [8] was 0.291 µM. It also gave a TGI [8] greater than 65.1 µM, a GI50 [9] of 0.601 µM and a TGI [9] greater than 100 µM. It also gave a GI50 [10] of 0.157 µM and a TGI [10] greater than 100 µM.

`COC(=O)c1ccc(NC(=O)Nc2ccc3oc(=O)c4ccccc4c3c2)cc1` gave a GI50 [1] of 27.8 µM, a TGI [1] greater than 100 µM and a GI50 [2] of 44.5 µM. The TGI [2] was greater than 100 µM, the GI50 [3] was 5.21 µM and the TGI [3] was 17.3 µM. The GI50 [4] was 70.9 µM, the TGI [4] was greater than 100 µM and the GI50 [5] was 17.6 µM. The TGI [5] was 62.1 µM, the GI50 [6] was 10.9 µM and the TGI [6] was greater than 100 µM. It also gave a GI50 [7] greater than 100 µM, a TGI [7] greater than 100 µM and a GI50 [8] of 17.8 µM. The TGI [8] was 39.6 µM, the GI50 [9] was 33 µM and the TGI [9] was 89.8 µM. It also gave a GI50 [10] of 28.1 µM and a TGI [10] greater than 100 µM.

For `CN(C)CCOc1ccc(/C(=C(/CCCl)c2ccccc2)c2ccccc2)cc1`, the GI50 [1] was 0.9 µM, the GI50 [2] was 1.57 µM and the TGI [2] was 6.01 µM and 30.3 µM. The GI50 [3] was 0.784 µM, the GI50 [4] was 0.979 µM and the TGI [4] was 3.73 µM and 29.7 µM. For the same molecule, the GI50 [5] was 1.12 µM, the GI50 [6] was 1.18 µM and the TGI [6] was 3.13 µM and 10 µM. The GI50 [7] was 1.81 µM, the TGI [7] was 21 µM and 29.4 µM and the GI50 [8] was 0.993 µM. The GI50 [9] was 1.85 µM, the TGI [9] was 22.6 µM and 28.5 µM and the GI50 [10] was 0.976 µM. It also gave a TGI [10] of 1.8 µM.

With `O=P(NC12CC3CC(CC(C3)C1)C2)(N1CC1)N1CC1` the TGI [1] was greater than 100 µM, the TGI [2] was greater than 100 µM and the TGI [3] was greater than 100 µM. For the same molecule, the TGI [4] was greater than 100 µM, the TGI [5] was greater than 43.2 µM and the TGI [6] was greater than 91.4 µM. It also gave a TGI [7] greater than 100 µM, a TGI [8] greater than 100 µM and a TGI [9] greater than 100 µM. The TGI [10] was greater than 100 µM.

With `CN(C)c1ccc(/C=C2\N=C(c3ccc([N+](=O)[O-])cc3)OC2=O)cc1` the TGI [1] was greater than 100 µM, the TGI [2] was greater than 100 µM and the TGI [3] was greater than 100 µM. The TGI [4] was greater than 100 µM, the TGI [5] was greater than 100 µM and the TGI [6] was 86.9 µM. For the same molecule, the TGI [7] was greater than 100 µM, the TGI [8] was greater than 100 µM and the TGI [9] was greater than 100 µM. It also gave a TGI [10] greater than 100 µM.

With `COc1ccc2c(c1)C(=O)C(=O)c1cc(O)c(OC)c(OC)c1-2` the GI50 [1] was 1.92 µM, the TGI [1] was 1.74 µM and 3.55 µM and the GI50 [2] was 1.71 µM. The TGI [2] was 1.6 µM and 3.08 µM, the GI50 [3] was 1.68 µM and the TGI [3] was 1.53 µM and 3.07 µM. The GI50 [4] was 1.77 µM, the TGI [4] was 1.67 µM and 3.15 µM and the GI50 [5] was 2.38 µM. For the same molecule, the TGI [5] was 0.746 µM and 5.74 µM, the TGI [6] was 6.39 µM and the GI50 [7] was 0.457 µM. The TGI [7] was 2.09 µM and 1.68 µM, the GI50 [8] was 1.15 µM and the TGI [8] was 1.72 µM and 2.58 µM. For the same molecule, the GI50 [9] was 1.85 µM, the TGI [9] was 2.38 µM and 3.28 µM and the GI50 [10] was 1.66 µM. For the same molecule, the TGI [10] was 1.44 µM and 3.02 µM.

With `CNC(=O)c1ccc2cc(C3(O)CCn4cncc43)ccc2c1` (configuration not stated) the GI50 [1] was greater than 100 µM, the TGI [1] was greater than 100 µM and the GI50 [2] was greater than 100 µM. The TGI [2] was greater than 100 µM, the GI50 [3] was greater than 100 µM and the TGI [3] was greater than 100 µM. For the same molecule, the GI50 [4] was greater than 100 µM, the TGI [4] was greater than 100 µM and the GI50 [5] was greater than 100 µM. For the same molecule, the TGI [5] was greater than 100 µM, the GI50 [6] was greater than 100 µM and the TGI [6] was greater than 100 µM. The GI50 [7] was greater than 100 µM, the TGI [7] was greater than 100 µM and the GI50 [8] was greater than 100 µM. It also gave a TGI [8] greater than 100 µM, a GI50 [9] greater than 100 µM and a TGI [9] greater than 100 µM. For the same molecule, the GI50 [10] was greater than 100 µM and the TGI [10] was greater than 100 µM.

In the case of `O=C(CF)N(O)c1ccc(/C=C/c2ccccc2)cc1`, the GI50 [1] is reported as 12.8 µM, the TGI [1] is reported as greater than 100 µM and the GI50 [2] is reported as 2.67 µM. For the same molecule, the TGI [2] was greater than 63.5 µM, the GI50 [3] was 14.4 µM and the TGI [3] was greater than 100 µM. The GI50 [4] was 0.609 µM, the TGI [4] was 2.85 µM and the GI50 [5] was 2.72 µM. For the same molecule, the TGI [5] was greater than 100 µM, the GI50 [6] was 0.257 µM and the TGI [6] was 4.04 µM. The GI50 [7] was 15.8 µM, the TGI [7] was greater than 100 µM and the GI50 [8] was 5.91 µM. For the same molecule, the TGI [8] was 32.2 µM, the GI50 [9] was 8.65 µM and the TGI [9] was greater than 100 µM. For the same molecule, the GI50 [10] was 4.37 µM and the TGI [10] was greater than 100 µM.

In the case of `CN1CCN(c2ccc3nc(-c4c(N)c5c(F)cccc5[nH]c4=O)[nH]c3c2)CC1`, the GI50 [1] is reported as 0.999 µM and 0.398 µM and 2.29 µM, the TGI [1] is reported as 2.87 µM and > 2.3 µM and 11.7 µM and the GI50 [2] is reported as 0.413 µM and 0.393 µM and 0.62 µM. For the same molecule, the TGI [2] was 5.3 µM and > 5.12 µM and 5.82 µM, the GI50 [3] was 1.33 µM and 0.604 µM and 1.72 µM and the TGI [3] was 2.64 µM and 1.29 µM and 3.16 µM. The GI50 [4] was 0.213 µM and 0.282 µM and 0.387 µM, the TGI [4] was 1.57 µM and > 10 µM and 12.5 µM and the GI50 [5] was 0.392 µM and 0.322 µM and 0.42 µM. The TGI [5] was 3.6 µM and 1.52 µM and 4.54 µM, the GI50 [6] was 0.472 µM and 0.284 µM and 0.502 µM and the TGI [6] was 10.2 µM and 1.44 µM and 7.97 µM. For the same molecule, the GI50 [7] was 2.38 µM and > 2.44 µM and 4.23 µM, the TGI [7] was 9.65 µM and > 7.22 µM and 16.2 µM and the GI50 [8] was 1.08 µM and 0.829 µM and 1.58 µM. For the same molecule, the TGI [8] was 2.7 µM and > 3.73 µM and 8.18 µM, the GI50 [9] was 1.9 µM and > 1.97 µM and 2.56 µM and the TGI [9] was 8.89 µM and > 10 µM and 12.6 µM. For the same molecule, the GI50 [10] was 1.62 µM and 0.501 µM and 1.26 µM and the TGI [10] was 10.2 µM and > 2.97 µM and 5.95 µM.

For `O=C(c1ccco1)c1nc2cc(F)ccc2[n+]([O-])c1C(F)(F)F`, the GI50 [1] was 14.7 µM, the TGI [1] was 32.2 µM and the GI50 [2] was 44.4 µM. The TGI [2] was greater than 100 µM, the GI50 [3] was greater than 100 µM and the TGI [3] was greater than 100 µM. It also gave a GI50 [4] of 15.8 µM, a TGI [4] of 30.8 µM and a GI50 [5] of 24.8 µM. It also gave a TGI [5] of 66.3 µM, a GI50 [6] of 17.4 µM and a TGI [6] of 60.9 µM. The GI50 [7] was 18.6 µM, the TGI [7] was 39.9 µM and the GI50 [8] was 81.4 µM. For the same molecule, the TGI [8] was greater than 100 µM, the GI50 [9] was 47.4 µM and the TGI [9] was greater than 100 µM. For the same molecule, the GI50 [10] was 22.2 µM and the TGI [10] was 51.6 µM.

With `N#Cc1ccc(N2Cc3ccccc3OC3=C2C(=O)c2c(O)ccc(O)c2C3=O)cc1` the GI50 [1] was 0.0336 µM, the TGI [1] was 0.162 µM and the GI50 [2] was 0.856 µM. The TGI [2] was 2.16 µM, the GI50 [3] was 0.685 µM and the TGI [3] was 2.26 µM. It also gave a GI50 [4] of 0.0992 µM, a TGI [4] of 0.366 µM and a GI50 [5] of 0.102 µM. It also gave a TGI [5] of 0.76 µM, a GI50 [6] of 0.0563 µM and a GI50 [7] of 0.818 µM. The TGI [7] was 4.17 µM, the GI50 [8] was 1.29 µM and the TGI [8] was 4.99 µM. For the same molecule, the GI50 [9] was 1.09 µM, the TGI [9] was 5.05 µM and the GI50 [10] was 0.572 µM. For the same molecule, the TGI [10] was 1.26 µM.
